The target in the experiment is T1, GR22e/GR32a/GR66a (Drosophila melanogaster, UniProt P58953+Q9VKJ7+Q9VSH2).
T1 construct: full-length receptors co-expressed in Drosophila S2 cells (with EGFP) and in sweet GRNs via UAS/Gr64f-GAL4
T1 sequence (P58953 1-389): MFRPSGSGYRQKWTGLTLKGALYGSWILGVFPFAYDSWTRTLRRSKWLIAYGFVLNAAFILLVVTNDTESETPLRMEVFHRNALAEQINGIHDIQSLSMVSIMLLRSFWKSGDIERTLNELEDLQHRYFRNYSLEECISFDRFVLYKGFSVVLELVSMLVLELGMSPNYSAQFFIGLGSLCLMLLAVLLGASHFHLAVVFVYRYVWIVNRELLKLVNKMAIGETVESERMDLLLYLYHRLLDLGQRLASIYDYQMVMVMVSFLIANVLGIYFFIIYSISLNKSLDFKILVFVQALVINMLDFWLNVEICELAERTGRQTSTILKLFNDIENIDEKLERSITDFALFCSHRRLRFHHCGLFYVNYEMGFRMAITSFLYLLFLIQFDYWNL
T1 sequence (Q9VKJ7 1-461): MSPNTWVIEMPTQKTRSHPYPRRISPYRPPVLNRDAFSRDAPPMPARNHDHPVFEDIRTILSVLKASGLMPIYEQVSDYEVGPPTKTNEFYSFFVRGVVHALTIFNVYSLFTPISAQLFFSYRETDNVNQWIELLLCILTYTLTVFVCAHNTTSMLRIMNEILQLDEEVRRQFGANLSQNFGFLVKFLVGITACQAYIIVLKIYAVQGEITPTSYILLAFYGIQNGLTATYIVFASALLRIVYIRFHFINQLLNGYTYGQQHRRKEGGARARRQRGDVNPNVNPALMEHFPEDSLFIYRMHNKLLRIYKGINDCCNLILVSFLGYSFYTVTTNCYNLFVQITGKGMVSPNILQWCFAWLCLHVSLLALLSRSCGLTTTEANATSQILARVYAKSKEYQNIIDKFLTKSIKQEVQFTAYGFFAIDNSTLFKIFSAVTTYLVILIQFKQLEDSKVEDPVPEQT
T1 sequence (Q9VSH2 1-527): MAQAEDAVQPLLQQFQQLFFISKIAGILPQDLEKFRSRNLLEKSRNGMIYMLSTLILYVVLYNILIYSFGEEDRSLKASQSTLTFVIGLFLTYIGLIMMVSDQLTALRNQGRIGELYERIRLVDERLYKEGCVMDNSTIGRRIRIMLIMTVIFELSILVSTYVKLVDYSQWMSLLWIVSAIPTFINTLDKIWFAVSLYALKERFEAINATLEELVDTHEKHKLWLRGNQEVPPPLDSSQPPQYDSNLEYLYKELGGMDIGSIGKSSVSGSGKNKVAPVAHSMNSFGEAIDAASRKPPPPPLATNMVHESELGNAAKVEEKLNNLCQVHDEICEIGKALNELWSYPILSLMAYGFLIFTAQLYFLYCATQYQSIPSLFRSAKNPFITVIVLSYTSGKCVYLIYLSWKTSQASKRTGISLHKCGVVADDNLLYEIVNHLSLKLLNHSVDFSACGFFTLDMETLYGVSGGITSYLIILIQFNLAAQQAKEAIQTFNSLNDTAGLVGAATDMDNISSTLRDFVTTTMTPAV
Briefly: whole-cell patch clamp of S2 cells; tip recording of L-type sensilla misexpressing the receptors. In kind it is cell-based. The following applies: agonist; S2 cells pH 7.4, room temperature, voltage ramp -80 to +80 mV; sensilla 1 mM. A general note: In patch-clamp work, channel activity is measured electrically.
On to `CN1[C@@H](CC(=O)c2ccccc2)CCC[C@H]1C[C@H](O)c1ccccc1` [LOB, lobeline], for which the “whole-cell patch clamp of S2 cells; tip recording of L-type sensilla misexpressi” value (“whole-cell patch clamp of S2 cells” for short) was “both Gr combinations confer sensitivity to LOB, BER, and DEN on S2 cells”.

Turning to `COc1ccc2cc3[n+](cc2c1OC)CCc1cc2c(cc1-3)OCO2` [BER, berberine], the “whole-cell patch clamp of S2 cells” value is “both Gr combinations confer sensitivity to LOB, BER, and DEN on S2 cells”.

On to `O=C1C[C@@H]2OCC=C3CN4CC[C@]56c7ccccc7N1[C@H]5[C@H]2[C@H]3C[C@H]46` [STR, strychnine], for which the “whole-cell patch clamp of S2 cells” value was “GR22e/GR32a/GR66a-expressing S2 cells also respond to STR”.

As to `CC[N+](CC)(CC(=O)Nc1c(C)cccc1C)Cc1ccccc1` [DEN, denatonium], the “whole-cell patch clamp of S2 cells” value was “both Gr combinations confer sensitivity to LOB, BER, and DEN on S2 cells”.
